Literature values in US20150040249A1, “Non-Human Animal Models of Depression and Methods of Use Thereof” (The Board of Trustees of the Leland Stanford Junior …, priority 2012, published 2015).

Columns and labels:
[1] = rats; in vivo electrophysiological recordings
[2] = test system: NMDAR; conditions: humans; acute

| Compound | reduced bursting activity in depression models [1] | depression-like symptoms [2] |
| --- | --- | --- |
| CNCCCN1c2ccccc2CCc2ccccc21 [desipramine] | restored |  |
| CNC1(c2ccccc2Cl)CCCCC1=O (centres unmarked) [ketamine] |  | can acutely improve depression-like symptoms |
